Test results from BindingDB's records for patent US9777020 (AbbVie Inc, 2017).

Molecular target: High affinity nerve growth factor receptor (Homo sapiens, UniProt P04629)
Sequence (P04629 whole entry): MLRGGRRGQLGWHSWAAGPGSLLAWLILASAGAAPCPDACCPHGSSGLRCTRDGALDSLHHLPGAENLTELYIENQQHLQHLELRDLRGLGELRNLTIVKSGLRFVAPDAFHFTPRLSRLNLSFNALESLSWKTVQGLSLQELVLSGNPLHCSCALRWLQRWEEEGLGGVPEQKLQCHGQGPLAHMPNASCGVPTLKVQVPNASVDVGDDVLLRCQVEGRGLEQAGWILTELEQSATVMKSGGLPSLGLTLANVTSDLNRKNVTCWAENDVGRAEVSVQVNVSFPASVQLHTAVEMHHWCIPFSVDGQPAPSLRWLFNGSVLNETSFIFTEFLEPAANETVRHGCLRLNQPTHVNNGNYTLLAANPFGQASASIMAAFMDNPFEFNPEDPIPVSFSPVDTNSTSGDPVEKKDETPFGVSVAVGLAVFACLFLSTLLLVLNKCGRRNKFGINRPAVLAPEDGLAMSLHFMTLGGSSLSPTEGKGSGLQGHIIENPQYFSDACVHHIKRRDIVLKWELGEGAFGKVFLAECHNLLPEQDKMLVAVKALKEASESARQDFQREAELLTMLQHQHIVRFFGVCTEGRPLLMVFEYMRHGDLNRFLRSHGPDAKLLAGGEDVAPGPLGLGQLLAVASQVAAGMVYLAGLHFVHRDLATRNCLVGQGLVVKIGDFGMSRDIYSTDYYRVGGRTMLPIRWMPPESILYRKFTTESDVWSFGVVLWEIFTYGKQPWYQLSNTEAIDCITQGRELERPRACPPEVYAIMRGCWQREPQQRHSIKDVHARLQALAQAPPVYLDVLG

| Compound | IC50 [nM] |
| --- | --- |
| Cc1nc2ccc(NC(=O)c3coc4c3C(=O)NCC4)cc2s1 [US9777020, Example 15] | 69.3 |
| CCOc1nc(N2CCOCC2)ccc1NC(=O)c1coc2c1C(=O)NCC2 [US9777020, Example 106] | 28.6 |
